Our source for the IC50 values is US20220274979A1 (Bayer Pharma Aktiengesellschaft, priority 2018, published 2022).

The target of the assay is T1, Epidermal Growth Factor Receptor (EGFR) (Homo sapiens, UniProt P00533).
T1 construct: purchased Sigma-Aldrich E3641
T1 sequence (P00533 25-1210): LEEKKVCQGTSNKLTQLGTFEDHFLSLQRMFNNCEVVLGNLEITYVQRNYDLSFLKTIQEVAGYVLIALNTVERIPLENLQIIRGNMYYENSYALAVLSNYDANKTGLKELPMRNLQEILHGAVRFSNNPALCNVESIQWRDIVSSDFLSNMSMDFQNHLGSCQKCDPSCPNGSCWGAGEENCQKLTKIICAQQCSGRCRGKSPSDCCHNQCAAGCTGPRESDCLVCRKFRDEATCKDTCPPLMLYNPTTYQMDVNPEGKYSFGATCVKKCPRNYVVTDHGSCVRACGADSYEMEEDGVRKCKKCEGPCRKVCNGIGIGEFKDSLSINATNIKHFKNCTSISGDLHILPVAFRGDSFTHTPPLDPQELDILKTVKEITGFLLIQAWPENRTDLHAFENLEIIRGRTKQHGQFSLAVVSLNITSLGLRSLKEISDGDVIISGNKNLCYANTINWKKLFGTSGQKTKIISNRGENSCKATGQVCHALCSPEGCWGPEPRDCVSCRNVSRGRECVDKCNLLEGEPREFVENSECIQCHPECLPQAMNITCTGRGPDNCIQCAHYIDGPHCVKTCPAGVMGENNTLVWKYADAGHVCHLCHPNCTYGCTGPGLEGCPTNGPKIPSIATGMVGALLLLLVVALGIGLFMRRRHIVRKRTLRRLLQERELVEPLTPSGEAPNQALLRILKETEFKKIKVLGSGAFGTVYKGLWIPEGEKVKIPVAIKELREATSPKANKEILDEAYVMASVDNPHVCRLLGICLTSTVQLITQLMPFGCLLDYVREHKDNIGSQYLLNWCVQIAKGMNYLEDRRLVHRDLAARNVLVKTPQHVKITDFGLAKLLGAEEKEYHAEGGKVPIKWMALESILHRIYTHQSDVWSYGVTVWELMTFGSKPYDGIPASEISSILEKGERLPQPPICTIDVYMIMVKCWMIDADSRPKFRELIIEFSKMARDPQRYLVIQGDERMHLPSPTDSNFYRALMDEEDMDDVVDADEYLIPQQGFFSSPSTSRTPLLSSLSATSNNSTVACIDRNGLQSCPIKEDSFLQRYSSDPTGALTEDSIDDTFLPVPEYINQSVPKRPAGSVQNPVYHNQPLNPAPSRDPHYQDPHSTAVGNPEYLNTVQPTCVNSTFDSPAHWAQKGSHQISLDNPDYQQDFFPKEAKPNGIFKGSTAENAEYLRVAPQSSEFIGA
As to the kind of experiment: EGFR kinase assay (TR-FRET). In kind it is biochemical. Conditions: 10 μM ATP; read-out: EGFR kinase inhibition IC50. An outline of the steps: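 EGFR purified from A431 cells pre-incubated 15 min with compound, then reacted 20 min at 22 °C with 10 μM ATP and 1 μM biotinylated peptide (final) in HEPES pH 7.0 with Mg2+/Mn2+. Phosphopeptide detected by TR-FRET (Tb anti-phosphotyrosine/streptavidin-XL665), 665/620 nm emission ratio.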
`Cc1nc(NC(C)c2ccc(-c3ccccc3CN(C)C)s2)c2cc(OCC3CC3)ncc2n1` (stereo not drawn) [Example 73, 6-(cyclopropylmethoxy)-N-[1-(5-{2-[(dimethylamino)methyl]phenyl}thiophen-2-yl)ethyl]-2-methylpyrido[3,4-d]pyrimidin-4-amine]: the IC50 (usually the concentration needed to halve the response being measured) was over 20 µM.

On to `Cc1nc(NC(C)c2ccc(-c3ccccc3CN(C)C)s2)c2cc(OCCO)ncc2n1` (stereo not drawn) [Example 74, 2-[(4-{[1-(5-{2-[(dimethylamino)methyl]phenyl}thiophen-2-yl)ethyl]amino}-2-methylpyrido[3,4-d]pyrimidin-6-yl)oxy]ethanol], for which the IC50 was over 20 µM.

On to `Cc1nc(N[C@H](C)c2cccc(Br)c2)c2cc(OCC3CC3)ncc2n1` [Example 75, N-[(1R)-1-(3-bromophenyl)ethyl]-6-(cyclopropylmethoxy)-2-methylpyrido[3,4-d]pyrimidin-4-amine], for which the IC50 is over 20 µM.

For the compound `Cc1nc(NC(C)c2ccc(-c3ccccc3CN(C)C)s2)c2cc(OCCCO)ncc2n1` (stereo not drawn) [Example 76, 3-[(4-{[1-(5-{2-[(dimethylamino)methyl]phenyl}thiophen-2-yl)ethyl]amino}-2-methylpyrido[3,4-d]pyrimidin-6-yl)oxy]propan-1-ol], the half-inhibitory concentration (IC50) is over 20 µM.

Regarding `Cc1nc(NC(C)c2ccc(-c3ccccc3CN(C)C)s2)c2cc(OC3CCS(=N)(=O)CC3)ncc2n1` (stereo not drawn) [Example 77, N-[1-(5-{2-[(dimethylamino)methyl]phenyl}-2-thienyl)ethyl]-6-[(1-imino-1-oxidohexahydro-1lambda4-thiopyran-4-yl)oxy]-2-methylpyrido[3,4-d]pyrimidin-4-amine], the IC50 is over 20 µM.

In the case of `Cc1nc(N[C@H](C)c2cccc(Br)c2)c2cc(OCCN(C)C)ncc2n1` [Example 78, N-[(1R)-1-(3-bromophenyl)ethyl]-6-[2-(dimethylamino)ethoxy]-2-methylpyrido[3,4-d]pyrimidin-4-amine], the IC50 was over 20 µM.

On to `Cc1nc(N[C@H](C)c2cccc(Br)c2)c2cc(NCCS(C)(=O)=O)ncc2n1` [Example 83], for which the IC50 is over 20 µM.

Consider `Cc1nc(N[C@H](C)c2cccc(Br)c2)c2cc(NCCn3ccnc3)ncc2n1` [Example 84, N4-[(1R)-1-(3-bromophenyl)ethyl]-N6-[2-(1H-imidazol-1-yl)ethyl]-2-methylpyrido[3,4-d]pyrimidine-4,6-diamine], for which the IC50 was over 20 µM.

As for `Cc1nc(NC(C)c2ccc(-c3ccccc3CN(C)C)s2)c2cc(NCC3CCNC(=O)C3)ncc2n1` (stereo not drawn) [Example 86, 4-{[(4-{[1-(5-{2-[(dimethylamino)methyl]phenyl}thiophen-2-yl)ethyl]amino}-2-methylpyrido[3,4-d]pyrimidin-6-yl)amino]methyl}piperidin-2-one], the IC50 is over 20 µM.

As to `Cc1nc(NC(C)c2ccc(-c3ccccc3CN(C)C)s2)c2cc(N3CC(NC(=O)CCCn4c(-c5ccccn5)nc(C)c4C)C3)ncc2n1` (stereo not drawn) [Example 87, N-[1-(4-{[1-(5-{2-[(dimethylamino)methyl]phenyl}thiophen-2-yl)ethyl]amino}-2-methylpyrido[3,4-d]pyrimidin-6-yl)azetidin-3-yl]-4-[4,5-dimethyl-2-(pyridin-2-yl)-1H-imidazol-1-yl]butanamide], the IC50 was over 20 µM.

As to `Cc1nc(NC(C)c2ccc(-c3ccccc3CN(C)C)s2)c2cc(N3CC(NC(=O)c4ccccc4)C3)ncc2n1` (stereo not drawn) [Example 88, N-[1-(4-{[1-(5-{2-[(dimethylamino)methyl]phenyl}thiophen-2-yl)ethyl]amino}-2-methylpyrido[3,4-d]pyrimidin-6-yl)azetidin-3-yl]benzamide], the IC50 was over 20 µM.

With `Cc1nc(NC(C)c2ccc(-c3ccccc3CN(C)C)s2)c2cc(N3CC(NC(=O)Cc4ccccc4)C3)ncc2n1` (stereo not drawn) [Example 89, N-[1-(4-{[1-(5-{2-[(dimethylamino)methyl]phenyl}thiophen-2-yl)ethyl]amino}-2-methylpyrido[3,4-d]pyrimidin-6-yl)azetidin-3-yl]-2-phenylacetamide], the IC50 was over 20 µM.

`Cc1nc(NC(C)c2ccc(-c3ccccc3CN(C)C)s2)c2cc(N3CC(NC(=O)C4CCCCC4)C3)ncc2n1` (stereo not drawn) [Example 90, N-[1-(4-{[1-(5-{2-[(dimethylamino)methyl]phenyl}thiophen-2-yl)ethyl]amino}-2-methylpyrido[3,4-d]pyrimidin-6-yl)azetidin-3-yl]cyclohexanecarboxamide]: the IC50 is over 20 µM.

As to `Cc1nc(NC(C)c2ccc(-c3ccccc3CN(C)C)s2)c2cc(N3CC(NC(=O)CC4CC4)C3)ncc2n1` (stereo not drawn) [Example 91, 2-cyclopropyl-N-[1-(4-{[1-(5-{2-[(dimethylamino)methyl]phenyl}thiophen-2-yl)ethyl]amino}-2-methylpyrido[3,4-d]pyrimidin-6-yl)azetidin-3-yl]acetamide], the IC50 was over 20 µM.

For the compound `Cc1nc(NC(C)c2ccc(-c3ccccc3CN(C)C)s2)c2cc(N3CC(N)C3)ncc2n1` (stereo not drawn) [Example 93, 6-(3-aminoazetidin-1-yl)-N-[1-(5-{2-[(dimethylamino)methyl]phenyl}thiophen-2-yl)ethyl]-2-methylpyrido[3,4-d]pyrimidin-4-amine], the half-inhibitory concentration (IC50) is over 20 µM.

For `Cc1nc(NC(C)c2ccc(-c3ccccc3CN(C)C)s2)c2cc(N3CC(NS(=O)(=O)c4ccccc4)C3)ncc2n1` (stereo not drawn) [Example 94, N-[1-(4-{[1-(5-{2-[(dimethylamino)methyl]phenyl}thiophen-2-yl)ethyl]amino}-2-methylpyrido[3,4-d]pyrimidin-6-yl)azetidin-3-yl]benzenesulfonamide], the IC50 was over 20 µM.

As for `Cc1nc(NC(C)c2ccc(-c3ccccc3CN(C)C)s2)c2cc(N3CC(NS(=O)(=O)Cc4ccccc4)C3)ncc2n1` (stereo not drawn) [Example 95, N-[1-(4-{[1-(5-{2-[(dimethylamino)methyl]phenyl}thiophen-2-yl)ethyl]amino}-2-methylpyrido[3,4-d]pyrimidin-6-yl)azetidin-3-yl]-1-phenylmethanesulfonamide], the IC50 is over 20 µM.

For the compound `Cc1nc(NC(C)c2ccc(-c3ccccc3CN(C)C)s2)c2cc(N3CC(NC(=O)Nc4ccccc4)C3)ncc2n1` (stereo not drawn) [Example 96, 1-[1-(4-{[1-(5-{2-[(dimethylamino)methyl]phenyl}thiophen-2-yl)ethyl]amino}-2-methylpyrido[3,4-d]pyrimidin-6-yl)azetidin-3-yl]-3-phenylurea], the IC50 is over 20 µM.
